# What was measured:
# Assay type in all cases: cell-based
# Conditions in all cases: Homo sapiens, LPS 100 ng/mL
# [1] = tested on: TNF-α; test: Inhibition of TNF-α in PMA-differentiated, LPS-stimulated THP-1 cells (ELISA of cell supernatant)
# Description: (§1) (1) Cell culture and inoculation: A stock solution of PMA at 1 mg/mL was diluted with serum-free RP1640 medium to prepare a 100 ng/mL PMA solution. Normal cultured THP-1 cells were centrifuged, resuspended in a complete medium (RP1640 medium containing 10% FBS), and counted. The cell density was adjusted to 2×10^6 cells/mL. An equal volume of 100 ng/mL PMA solution was then added, resulting in a cell density of 1×10^6 cells/mL and a final PMA concentration of 50 ng/mL. 100 μL of the cell suspension was seeded into each well of a 96-well cell culture plate with 1×10^5 cells per well. The 96-well cell culture plate was then incubated at 37° C. in a 5% CO2 atmosphere for 24 hours.
# (§2) (2) Drug treatment of cells: On the second day, LPS was added to the complete medium to adjust the final concentration to 100 ng/mL, and the compound was prepared using this LPS-containing medium. The compound was added to the appropriate cell wells according to the prepared concentration gradient. The positive control group (LPS+) was a culture medium solution containing a final concentration of 100 ng/mL LPS and 0.1% DMSO without drugs, while the negative control group (LPS-) was a culture medium solution containing 0.1% DMSO without LPS. The volume in each well was 100 μL.
# (§3) (3) Test sample collection: The mixture was centrifuged at 1000 rpm for 5 minutes and the cell supernatant and cell precipitate were collected separately. The cell supernatant was used to detect TNF-α and IL-6, and the cell precipitate was collected for IL-1β detection. After collecting the cell supernatant, the remaining liquid in the wells was discarded and 100 μL of cell lysis solution (20 mM Tris 8.0; 2 mM EDTA; 0.5% Triton X-100) was added to each well for complete lysis.
# (§4) (4) Sample detection: The enzyme-linked immunosorbent assay (ELISA) was used to detect the content of each cytokine. The specific steps were performed according to the instructions provided in the corresponding kit manuals. The catalog numbers of kits are as follows: • Human TNF-alpha Quantikine ELISA Kit, Catalog # STA00D • Human IL-1 beta/IL-1F2 Quantikine ELISA Kit, Catalog # SLB50 • Human IL-6 Quantikine ELISA Kit, Catalog # S6050.
# (§5) (5) Data analysis: The in vitro inhibitory activity of the compounds was calculated using the following formula: […]
# [2] = tested on: IL-1β; test: Inhibition of IL-1β in PMA-differentiated, LPS-stimulated THP-1 cells (ELISA of cell lysate)
# Description: as §1, §2, §3, §4, §5
# [3] = tested on: IL-6; test: Inhibition of IL-6 in PMA-differentiated, LPS-stimulated THP-1 cells (ELISA of cell supernatant)
# Description: as §1, §2, §3, §4, §5
smiles,measurement,setting,value
"OCCN(CCCCCNc1ncnc2cc(F)ccc12)Cc1ncco1 [Example 48, 2-((5-((7-Fluoroquinazolin-4-yl)amino)pentyl)(oxazol-2-ylmethyl)amino)ethan-1-ol]",IC50,"[1]; THP-1, Table 7, PMA 50 ng/mL",14.8 µM
same,IC50,"[2]; THP-1, Table 7, PMA 50 ng/mL",49.6 µM
same,IC50,"[3]; THP-1, Table 7, PMA 50 ng/mL",0.91 µM
CS(=O)(=O)c1ccc(CN(CCO)CCCCCNc2ncnc3cc(F)ccc23)cc1 [Example 49],IC50,"[1]; THP-1, Table 7, PMA 50 ng/mL",18.5 µM
same,IC50,"[2]; THP-1, Table 7, PMA 50 ng/mL",48.2 µM
same,IC50,"[3]; THP-1, Table 7, PMA 50 ng/mL",1.15 µM
"O=C1NC2(CCC2)C(=O)N1CCCCCNc1ncnc2cc(F)ccc12 [Example 51, 7-(5-((7-Fluoroquinazolin-4-yl)amino)pentyl)-5,7-diazaspiro[3.4]octane-6,8-dione]",IC50,"[1]; THP-1, Table 8, PMA 50 ng/mL",3.96 µM
same,IC50,"[2]; THP-1, Table 8, PMA 50 ng/mL",3.52 µM
same,IC50,"[3]; THP-1, Table 8, PMA 50 ng/mL",0.04 µM
"O=C1NC2(CCCC2)C(=O)N1CCCCCNc1ncnc2cc(F)ccc12 [Example 52, 3-(5-((7-Fluoroquinazolin-4-yl)amino)pentyl)-1,3-diazaspiro[4.4]nonane-2,4-dione]",IC50,"[1]; THP-1, Table 8, PMA 50 ng/mL",28.3 µM
same,IC50,"[2]; THP-1, Table 8, PMA 50 ng/mL",21 µM
same,IC50,"[3]; THP-1, Table 8, PMA 50 ng/mL",0.28 µM
"CN1CC(=O)N(CCCCCNc2ncnc3cc(F)ccc23)C1=O [Example 54, 3-(5-((7-Fluoroquinazolin-4-yl)amino)pentyl)-1-methylimidazoline-2,4-dione]",IC50,"[1]; THP-1, Table 8, PMA 50 ng/mL",114 µM
same,IC50,"[2]; THP-1, Table 8, PMA 50 ng/mL",154 µM
same,IC50,"[3]; THP-1, Table 8, PMA 50 ng/mL",1.05 µM
"O=C1NC2(CC2)C(=O)N1CCCCCNc1ncnc2cc(F)ccc12 [Example 55, 6-(5-((7-Fluoroquinazolin-4-yl)amino)pentyl)-4,6-diazaspiro[2.4]heptane-5,7-dione]",IC50,"[1]; THP-1, Table 8, PMA 50 ng/mL",34.9 µM
same,IC50,"[2]; THP-1, Table 8, PMA 50 ng/mL",63.8 µM
same,IC50,"[3]; THP-1, Table 8, PMA 50 ng/mL",0.34 µM
"O=C1CNC(=O)N1CCCCNc1ncnc2cc(F)ccc12 [Example 56, 3-(4-((7-Fluoroquinazolin-4-yl)amino)butyl)imidazoline-2,4-dione]",IC50,"[1]; THP-1, Table 8, PMA 50 ng/mL",159 µM
same,IC50,"[2]; THP-1, Table 8, PMA 50 ng/mL",16.3 µM
same,IC50,"[3]; THP-1, Table 8, PMA 50 ng/mL",18.8 µM
"CC1(C)NC(=O)N(CCCCNc2ncnc3cc(F)ccc23)C1=O [Example 57, 3-(4-((7-Fluoroquinazolin-4-yl)amino)butyl)-5,5-dimethylimidazoline-2,4-dione]",IC50,"[1]; THP-1, Table 8, PMA 50 ng/mL",29.4 µM
same,IC50,"[2]; THP-1, Table 8, PMA 50 ng/mL",53.9 µM
same,IC50,"[3]; THP-1, Table 8, PMA 50 ng/mL",3.22 µM
"CN1CC(=O)N(CCCCNc2ncnc3cc(F)ccc23)C1=O [Example 58, 3-(4-((7-Fluoroquinazolin-4-yl)amino)butyl)-1-methylimidazoline-2,4-dione]",IC50,"[1]; THP-1, Table 8, PMA 50 ng/mL",90.7 µM
same,IC50,"[2]; THP-1, Table 8, PMA 50 ng/mL",86.5 µM
same,IC50,"[3]; THP-1, Table 8, PMA 50 ng/mL",2.58 µM
"O=C1NC2(CCCC2)C(=O)N1CCCCNc1ncnc2cc(F)ccc12 [Example 59, 3-(4-((7-Fluoroquinazolin-4-yl)amino)butyl)-1,3-diazaspiro[4.4]nonane-2,4-dione]",IC50,"[1]; THP-1, Table 8, PMA 50 ng/mL",12.1 µM
same,IC50,"[2]; THP-1, Table 8, PMA 50 ng/mL",80.5 µM
same,IC50,"[3]; THP-1, Table 8, PMA 50 ng/mL",0.37 µM
"O=C1NC2(CCCC2)C(=O)N1CCCCNc1ncnc2cc(Cl)ccc12 [Example 62, 3-(4-((7-Chloroquinazolin-4-yl)amino)butyl)-1,3-diazaspiro[4.4]nonane-2,4-dione]",IC50,"[1]; THP-1, Table 8, PMA 50 ng/mL",7.18 µM
same,IC50,"[2]; THP-1, Table 8, PMA 50 ng/mL",51.6 µM
same,IC50,"[3]; THP-1, Table 8, PMA 50 ng/mL",0.75 µM
"O=C1CNC(=O)N1CCCCNc1ncnc2cc(Cl)ccc12 [Example 63, 3-(4-((7-Chloroquinazolin-4-yl)amino)butyl)imidazoline-2,4-dione]",IC50,"[1]; THP-1, Table 8, PMA 50 ng/mL",79.4 µM
same,IC50,"[2]; THP-1, Table 8, PMA 50 ng/mL",23.1 µM
same,IC50,"[3]; THP-1, Table 8, PMA 50 ng/mL",14.4 µM
"O=C1NC2(CCC2)C(=O)N1CCCCNc1ncnc2cc(Cl)ccc12 [Example 64, 7-(4-((7-Chloroquinazolin-4-yl)amino)butyl)-5,7-diazaspiro[3.4]octane-6,8-dione]",IC50,"[1]; THP-1, Table 8, PMA 50 ng/mL",34.9 µM
same,IC50,"[2]; THP-1, Table 8, PMA 50 ng/mL",63.8 µM
same,IC50,"[3]; THP-1, Table 8, PMA 50 ng/mL",0.34 µM
"O=C1NC2(CCCC2)C(=O)N1CCCCCNc1ncnc2cc(Cl)ccc12 [Example 66, 3-(5-((7-Chloroquinazolin-4-yl)amino)pentyl)-1,3-diazaspiro[4.4]nonane-2,4-dione]",IC50,"[1]; THP-1, Table 8, PMA 50 ng/mL",3.41 µM
same,IC50,"[2]; THP-1, Table 8, PMA 50 ng/mL",37.4 µM
same,IC50,"[3]; THP-1, Table 8, PMA 50 ng/mL",0.3 µM
"O=C1CNC(=O)N1CCCCCNc1ncnc2cc(Cl)ccc12 [Example 67, 3-(5-((7-Chloroquinazolin-4-yl)amino)pentyl)imidazoline-2,4-dione]",IC50,"[1]; THP-1, Table 8, PMA 50 ng/mL",65.2 µM
same,IC50,"[2]; THP-1, Table 8, PMA 50 ng/mL",105 µM
same,IC50,"[3]; THP-1, Table 8, PMA 50 ng/mL",4.6 µM
"CC1(C)NC(=O)N(CCCCCNc2ncnc3cc(Cl)ccc23)C1=O [Example 69, 3-(5-((7-Chloroquinazolin-4-yl)amino)pentyl)-5,5-dimethylimidazoline-2,4-dione]",IC50,"[1]; THP-1, Table 8, PMA 50 ng/mL",11.7 µM
same,IC50,"[2]; THP-1, Table 8, PMA 50 ng/mL",13.7 µM
same,IC50,"[3]; THP-1, Table 8, PMA 50 ng/mL",0.58 µM
"CC(CCCN1C(=O)NC2(CCC2)C1=O)Nc1ncnc2cc(Cl)ccc12 (stereo not drawn) [Example 71, 7-(4-((7-Chloroquinazolin-4-yl)amino)pentyl)-5,7-diazaspiro[3.4]octane-6,8-dione]",IC50,"[1]; THP-1, Table 8, PMA 50 ng/mL",12.7 µM
same,IC50,"[2]; THP-1, Table 8, PMA 50 ng/mL",16.1 µM
same,IC50,"[3]; THP-1, Table 8, PMA 50 ng/mL",0.64 µM
"CC(CCCN1C(=O)NC2(CCCC2)C1=O)Nc1ncnc2cc(Cl)ccc12 (stereo not drawn) [Example 72, 3-(4-((7-Chloroquinazolin-4-yl)amino)pentyl)-1,3-diazaspiro[4.4]nonane-2,4-dione]",IC50,"[1]; THP-1, Table 8, PMA 50 ng/mL",7.5 µM
same,IC50,"[2]; THP-1, Table 8, PMA 50 ng/mL",12.8 µM
same,IC50,"[3]; THP-1, Table 8, PMA 50 ng/mL",0.23 µM
"CC(CCCN1C(=O)NC2(CC2)C1=O)Nc1ncnc2cc(Cl)ccc12 (stereo not drawn) [Example 73, 6-(4-((7-Chloroquinazolin-4-yl)amino)pentyl)-4,6-diazaspiro[2.4]heptane-5,7-dione]",IC50,"[1]; THP-1, Table 8, PMA 50 ng/mL",33.5 µM
same,IC50,"[2]; THP-1, Table 8, PMA 50 ng/mL",38.1 µM
same,IC50,"[3]; THP-1, Table 8, PMA 50 ng/mL",1.5 µM
"C[C@@H](CCCN1C(=O)CNC1=O)Nc1ncnc2cc(Cl)ccc12 [Example 75, (S)-3-(4-((7-Chloroquinazolin-4-yl)amino)pentyl)imidazolidine-2,4-dione]",IC50,"[1]; THP-1, Table 8, PMA 50 ng/mL",45.6 µM
same,IC50,"[2]; THP-1, Table 8, PMA 50 ng/mL",53.8 µM
same,IC50,"[3]; THP-1, Table 8, PMA 50 ng/mL",4.28 µM
"C[C@H](CCCN1C(=O)NC2(CC2)C1=O)Nc1ncnc2cc(Cl)ccc12 [Example 76, (R)-6-(4-((7-Chloroquinazolin-4-yl)amino)pentyl)-4,6-diazaspiro[2.4]heptane-5,7-dione]",IC50,"[1]; THP-1, Table 8, PMA 50 ng/mL",96.1 µM
same,IC50,"[2]; THP-1, Table 8, PMA 50 ng/mL",110 µM
same,IC50,"[3]; THP-1, Table 8, PMA 50 ng/mL",19.9 µM
"C[C@@H](CCCN1C(=O)NC2(CC2)C1=O)Nc1ncnc2cc(Cl)ccc12 [Example 77, (S)-6-(4-((7-Chloroquinazolin-4-yl)amino)pentyl)-4,6-diazaspiro[2.4]heptane-5,7-dione]",IC50,"[1]; THP-1, Table 8, PMA 50 ng/mL",22.7 µM
same,IC50,"[2]; THP-1, Table 8, PMA 50 ng/mL",26.6 µM
same,IC50,"[3]; THP-1, Table 8, PMA 50 ng/mL",1.37 µM
"CCN(CCO)CCCC(C)Nc1ccnc2cc(Cl)ccc12 (stereo not drawn) [HCQ, Hydroxychloroquine, reference compound]",IC50,"[1]; THP-1, Table 7, PMA 50 ng/mL",69.3 µM
same,IC50,"[1]; THP-1, Table 8, PMA 50 ng/mL",90.5 µM
same,IC50,"[2]; THP-1, Table 7, PMA 50 ng/mL",62.2 µM
same,IC50,"[2]; THP-1, Table 8, PMA 50 ng/mL",164 µM
same,IC50,"[3]; THP-1, Table 7, PMA 50 ng/mL",32 µM
same,IC50,"[3]; THP-1, Table 8, PMA 50 ng/mL",123 µM

# From US20240262793A1, “QUINAZOLINE COMPOUND, AND PREPARATION METHOD THEREFOR AND APPLICATION THEREOF” (SHANGHAI PHARMACEUTICALS HOLDING CO., LTD., priority 2021, published 2024)
